Experimental data as given in ChEMBL document CHEMBL4411324, “Comprehensive structure-activity-relationship of azaindoles as highly potent FLT3 inhibitors” (Bioorg Med Chem, 2019).

Tested on: not listed separately
Test: Lipophilicity, log D of the compound at pH 7.4
Format: physicochemical
Details: buffer

Compound	logD
O=S(=O)(NCCNC/C=C/c1ccc(-c2cccnc2)cc1)c1cccc2cnccc12	1.5

Target: Receptor-type tyrosine-protein kinase FLT3 (Homo sapiens, UniProt P36888, ITD)
Test: Inhibition of recombinant human N-terminal GST/His6-fused FLT3 ITD mutant (R571 to S993 residues) expressed in Sf9 insect cells assessed as residual activity using ULightTM-TK peptide as substrate incubated for 90 mins under dark condition by FRET assay
Details: not given

Sequence of Receptor-type tyrosine-protein kinase FLT3 (P36888 whole entry, looked up, stated change not applied, the tested form may be a part): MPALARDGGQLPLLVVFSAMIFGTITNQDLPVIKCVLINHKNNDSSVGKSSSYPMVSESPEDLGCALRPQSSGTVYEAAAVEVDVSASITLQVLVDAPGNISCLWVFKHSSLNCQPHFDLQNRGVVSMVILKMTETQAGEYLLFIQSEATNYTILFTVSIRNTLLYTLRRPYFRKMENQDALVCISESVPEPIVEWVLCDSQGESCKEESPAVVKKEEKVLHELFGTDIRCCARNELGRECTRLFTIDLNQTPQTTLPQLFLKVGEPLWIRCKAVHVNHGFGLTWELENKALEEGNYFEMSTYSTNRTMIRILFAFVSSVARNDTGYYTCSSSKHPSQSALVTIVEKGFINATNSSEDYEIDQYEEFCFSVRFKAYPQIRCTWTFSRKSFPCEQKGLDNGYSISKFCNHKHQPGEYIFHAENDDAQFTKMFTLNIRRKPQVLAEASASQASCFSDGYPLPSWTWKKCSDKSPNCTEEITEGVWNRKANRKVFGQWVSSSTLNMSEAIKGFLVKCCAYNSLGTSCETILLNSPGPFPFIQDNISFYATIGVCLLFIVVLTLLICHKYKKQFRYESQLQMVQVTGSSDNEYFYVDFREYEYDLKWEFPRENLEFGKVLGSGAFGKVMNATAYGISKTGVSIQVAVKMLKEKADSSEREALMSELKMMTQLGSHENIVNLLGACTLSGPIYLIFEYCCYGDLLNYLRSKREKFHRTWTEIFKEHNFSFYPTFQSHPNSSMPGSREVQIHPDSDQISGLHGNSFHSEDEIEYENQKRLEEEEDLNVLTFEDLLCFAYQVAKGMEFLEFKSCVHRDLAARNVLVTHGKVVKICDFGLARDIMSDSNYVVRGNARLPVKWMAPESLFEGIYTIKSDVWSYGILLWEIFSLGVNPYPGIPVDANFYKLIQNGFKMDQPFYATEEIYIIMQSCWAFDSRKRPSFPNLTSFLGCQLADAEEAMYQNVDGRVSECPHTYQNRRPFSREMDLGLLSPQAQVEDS

Compound	IC50
O=C(CCc1ccc(-c2cnc3[nH]ccc3c2)cc1)NCCNS(=O)(=O)c1ccc(Cl)cc1	2.4 nM
Nc1ncccc1-c1ccc(CCC(=O)NCCNS(=O)(=O)c2cccc3cnccc23)cc1	151 nM
O=S(=O)(NCCNC/C=C/c1ccc(-c2cccnc2)cc1)c1cccc2ccccc12	61.7 nM
O=S(=O)(NCCNC/C=C/c1ccc(-c2ccccc2)cc1)c1cccc2cnccc12	> 10000 nM
O=C(CCc1ccc(-c2cnc3[nH]ccc3c2)cc1)NCCNS(=O)(=O)c1ccccc1	0.324 nM
O=[N+]([O-])c1ccccc1S(=O)(=O)NCCNC/C=C/c1ccc(-c2cccnc2)cc1	8.51 nM
O=S(=O)(NCCNC/C=C/c1ccc(-c2cccnc2)cc1)c1cccc2cnccc12	9.55 nM
O=C(NCCNC/C=C/c1ccc(-c2cccnc2)cc1)c1cccc2cnccc12	> 10000 nM
CN(CCNC/C=C/c1ccc(-c2cccnc2)cc1)S(=O)(=O)c1cccc2cnccc12	182 nM
O=C(CCc1ccc(-c2cnc3[nH]ccc3c2)cc1)NCCNS(=O)(=O)c1ccc(Cl)c(Cl)c1	4.07 nM
O=C(CCc1ccc(-c2cnc3[nH]ccc3c2)cc1)NCCNS(=O)(=O)c1cccc2cnccc12	1.35 nM
Nc1ccccc1S(=O)(=O)NCCNC/C=C/c1ccc(-c2cccnc2)cc1	26.9 nM
O=S(=O)(NCCOCCCc1ccc(-c2cccnc2)cc1)c1cccc2cnccc12	38.9 nM
O=C(CCc1ccc(-c2cnc3[nH]ccc3c2)cc1)NCCNS(=O)(=O)c1cccc(Cl)c1	1.91 nM
Nc1ccc(-c2ccc(CCC(=O)NCCNS(=O)(=O)c3cccc4cnccc34)cc2)cn1	23.4 nM
CNC(=O)c1ncccc1-c1ccc(CCC(=O)NCCNS(=O)(=O)c2cccc3cnccc23)cc1	> 10000 nM
Nc1nccc2c(S(=O)(=O)NCCNC/C=C/c3ccc(-c4cccnc4)cc3)cccc12	24 nM
O=S(=O)(NCCCCCCc1ccc(-c2cccnc2)cc1)c1cccc2cnccc12	170 nM
O=S(=O)(NCCNCCCc1ccc(-c2cccnc2)cc1)c1cccc2cnccc12	8.91 nM
CN(C/C=C/c1ccc(-c2cccnc2)cc1)CCN(C)S(=O)(=O)c1cccc2cnccc12	126 nM
O=S(=O)(NCCNC/C=C/c1ccc(-c2ccc3ccccc3c2)cc1)c1cccc2cnccc12	> 10000 nM
O=C(CCc1ccc(-c2cnc3[nH]ccc3c2)cc1)NCCNS(=O)(=O)c1cccc(C(F)(F)F)c1	4.27 nM
O=C(CCc1ccc(-c2cnc3[nH]ccc3c2)cc1)NCCNS(=O)(=O)c1cc(Cl)cc(Cl)c1	6.92 nM
CN(C/C=C/c1ccc(-c2cccnc2)cc1)CCNS(=O)(=O)c1cccc2cnccc12	135 nM
O=C(CCc1ccc(-c2cccnc2)cc1)NCCNS(=O)(=O)c1cccc2cnccc12	32.4 nM

Compound	IC50
O=C(CCc1ccc(-c2cnc3[nH]ccc3c2)cc1)NCCNS(=O)(=O)c1ccccc1Cl	0.479 nM
O=S(=O)(NCCNC/C=C/c1ccc(-c2cccnc2)cc1)c1ccc2[nH]ncc2c1	9.77 nM
O=S(=O)(NCCOC/C=C/c1ccc(-c2cccnc2)cc1)c1cccc2cnccc12	8.32 nM
O=S(=O)(NCCNCc1ccc2cc(-c3cccnc3)ccc2c1)c1cccc2cnccc12	562 nM
O=C1NCc2ccc(S(=O)(=O)NCCNC/C=C/c3ccc(-c4cccnc4)cc3)cc21	47.9 nM
COc1ccc(S(=O)(=O)NCCNCCCc2ccc(-c3cnc4[nH]ccc4c3)cc2)cc1	2.4 nM
O=C1NCc2cc(S(=O)(=O)NCCNC/C=C/c3ccc(-c4cccnc4)cc3)ccc21	18.2 nM
O=S(=O)(NCCNCc1ccc(-c2cccnc2)cc1)c1cccc2cnccc12	158 nM
O=S(=O)(NCCNC/C=C/c1ccc(-c2cccnc2)cc1)c1ccc2cn[nH]c2c1	17 nM
COc1ccc(S(=O)(=O)NCCNC(=O)CCc2ccc(-c3cnc4[nH]ccc4c3)cc2)cc1	1.82 nM
CNC(=O)c1ccc(-c2ccc(CCC(=O)NCCNS(=O)(=O)c3cccc4cnccc34)cc2)cn1	> 10000 nM
O=S(=O)(NCCNCCCc1ccc(-c2cnc3[nH]ccc3c2)cc1)c1ccc(Cl)c(Cl)c1	7.41 nM
CN(CCNCCCc1ccc(-c2cccnc2)cc1)S(=O)(=O)c1cccc2cnccc12	47.9 nM
O=S(=O)(NCCNCCc1ccc(-c2cccnc2)cc1)c1cccc2cnccc12	269 nM
CNC(=O)c1ccc(S(=O)(=O)NCCNC/C=C/c2ccc(-c3cccnc3)cc2)cn1	13.8 nM
CS(=O)(=O)NCCNC/C=C/c1ccc(-c2cccnc2)cc1	646 nM
O=S(=O)(NCCNCCCc1ccc(-c2cnc3[nH]ccc3c2)cc1)c1cccc2cnccc12	1.66 nM
O=S(=O)(NCCNCCCc1ccc(-c2cnc3[nH]ccc3c2)cc1)c1ccccc1	1.32 nM
Cc1ccc(S(=O)(=O)NCCNC(=O)CCc2ccc(-c3cnc4[nH]ccc4c3)cc2)cc1	2.14 nM
Nc1cc2c(S(=O)(=O)NCCNC/C=C/c3ccc(-c4cccnc4)cc3)cccc2cn1	19.5 nM
O=C1NCc2c1cccc2S(=O)(=O)NCCNC/C=C/c1ccc(-c2cccnc2)cc1	20 nM
O=C(CCc1ccc(-c2cnc3[nH]ccc3c2)cc1)NCCNS(=O)(=O)c1ccc(F)cc1	0.407 nM
O=S(=O)(NCCNCCCc1ccc(-c2cnc3[nH]ccc3c2)cc1)c1ccc(Cl)cc1	4.37 nM
Cc1ccc(S(=O)(=O)NCCNCCCc2ccc(-c3cnc4[nH]ccc4c3)cc2)cc1	2.04 nM

Tested on: Receptor-type tyrosine-protein kinase FLT3 (Homo sapiens), P36888 [UNDEFINED MUTATION]
Test: Inhibition of recombinant human N-terminal GST/His6-fused FLT3 ITD mutant (R571 to S993 residues) expressed in Sf9 insect cells assessed as residual activity at 2 uM using ULightTM-TK peptide as substrate incubated for 90 mins under dark condition by FRET assay relative to control
Details: not given

Sequence of Receptor-type tyrosine-protein kinase FLT3 (Homo sapiens), P36888 [UNDEFINED MUTATION] (P36888 whole entry, looked up, stated change not applied, the tested form may be a part): as above

Compound	Activity
O=S(=O)(NCCNC/C=C/c1ccc(-c2cccnc2)cc1)c1cccc2cnccc12	13%
O=S(=O)(NCCNC/C=C/c1ccc(-c2cncnc2)cc1)c1cccc2cnccc12	13%
O=S(=O)(NCCNC/C=C/c1ccc(-c2cnc3ccccc3c2)cc1)c1cccc2cnccc12	9%
O=S(=O)(NCCNC/C=C/c1ccc(-c2cn[nH]c2)cc1)c1cccc2cnccc12	14%
